# Source: ChEMBL document CHEMBL1201862, “PubChem BioAssay data set” (2004)
# Active and inactive are the calls of the source.
# Experiments:
# [1] = biological target: T1, Calpain-2 catalytic subunit (Sus scrofa, UniProt P43367); experiment: m-calpain protease blockers, concentration series – biochemical, fluorogenic peptide substrate, dose response (AID 1420); assay type: functional
# T1 sequence (P43367 whole entry): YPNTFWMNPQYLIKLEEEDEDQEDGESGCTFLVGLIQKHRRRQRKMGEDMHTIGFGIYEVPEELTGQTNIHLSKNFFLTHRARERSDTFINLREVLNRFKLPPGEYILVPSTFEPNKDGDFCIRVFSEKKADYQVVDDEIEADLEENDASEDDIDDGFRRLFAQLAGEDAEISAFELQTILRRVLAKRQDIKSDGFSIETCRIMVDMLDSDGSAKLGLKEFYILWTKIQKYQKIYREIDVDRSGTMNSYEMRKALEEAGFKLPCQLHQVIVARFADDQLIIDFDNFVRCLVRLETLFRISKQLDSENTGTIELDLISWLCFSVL
# [2] = NIH-3T3 fibroblast cytotoxicity, dose response, cytotoxicity control, cell-based, fluorescence, Alamar Blue, secondary assay (AID 2327); assay type: functional;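 note: NIH-3T3 mouse fibroblasts cultured with fluconazole at 8 µg/mL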
# [3] = biological target: T2, Zinc finger protein mex-5 (Caenorhabditis elegans, UniProt Q9XUB2); experiment: potency of MEX-5 RNA-binding blockers – biochemical, C. elegans, fluorescence polarization, dose response (AID 1960)
# T2 sequence (Q9XUB2 whole entry): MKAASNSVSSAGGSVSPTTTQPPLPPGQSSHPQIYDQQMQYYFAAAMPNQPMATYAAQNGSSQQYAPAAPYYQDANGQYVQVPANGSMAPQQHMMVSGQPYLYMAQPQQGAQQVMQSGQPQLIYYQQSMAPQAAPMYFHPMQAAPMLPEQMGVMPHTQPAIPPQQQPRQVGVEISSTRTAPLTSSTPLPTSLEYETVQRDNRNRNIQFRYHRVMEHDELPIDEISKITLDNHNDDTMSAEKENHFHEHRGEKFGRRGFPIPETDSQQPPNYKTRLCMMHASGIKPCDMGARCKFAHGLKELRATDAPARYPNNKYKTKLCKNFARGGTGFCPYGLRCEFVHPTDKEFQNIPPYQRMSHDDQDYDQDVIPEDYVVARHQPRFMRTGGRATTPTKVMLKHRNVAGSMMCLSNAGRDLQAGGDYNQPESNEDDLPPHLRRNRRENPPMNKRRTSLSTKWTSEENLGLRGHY
# H9c2 = experiment: cells; assay type: functional, cell-based; details: Rattus norvegicus, H9c2, Myocardium;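 note: confirmatory concentration-response retest of ultra-high-throughput screening hits for modulation of myocardial damage; cell death induced by hydrogen peroxide oxidative stress; compound pretreatment for 60 min then peroxide exposure for 2 h; potency is for protecting the cells against peroxide damage rather than for killing them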
# [4] = biological target: T3, RNA-binding protein pos-1 (Caenorhabditis elegans, UniProt G5EF15); experiment: disruptors of C. elegans POS-1 RNA interaction – biochemical, fluorescence polarization, dose response (AID 1964);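 note: purified POS-1 fused to maltose binding protein made in E. coli; potency of compounds blocking POS-1 binding to fluorescent RNA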
# T3 sequence (G5EF15 whole entry): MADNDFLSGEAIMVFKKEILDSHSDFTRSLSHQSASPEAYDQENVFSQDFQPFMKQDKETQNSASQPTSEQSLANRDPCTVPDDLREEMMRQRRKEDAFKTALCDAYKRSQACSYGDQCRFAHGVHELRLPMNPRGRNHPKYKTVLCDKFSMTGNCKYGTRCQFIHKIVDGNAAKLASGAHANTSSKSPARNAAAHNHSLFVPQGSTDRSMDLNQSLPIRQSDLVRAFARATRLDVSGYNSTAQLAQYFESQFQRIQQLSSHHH
# [5] = fluconazole-exposed Candida albicans growth modulators – fluorescence, retest, confirmation (AID 2467); assay type: functional, cell-based
# [6] = biological target: T4, Polyadenylate-binding protein 1 (Homo sapiens, UniProt P11940); experiment: MLLE domain peptide-binding blockers, IC50 – biochemical, fluorescence polarization, FITC-PAM2 peptide, dose response (AID 602259); assay type: functional; details: read-out: IC50_Mean
# [7] = biological target: T4, Polyadenylate-binding protein 1; experiment: MLLE binding blockers, Cy5 peptide tracer – biochemical, fluorescence polarization, Cy5-PAM2 peptide, secondary, miRNA deadenylation inhibitor project, dose response (AID 602260); assay type: functional; details: read-out: IC50_Mean
# Cytochrome P450 2C19 = Cytochrome P450 2C19 (Homo sapiens, UniProt P33261); experiment: Cytochrome panel assay with activity outcomes. Panel member name: p450-cyp2c19 Compounds with AC50 equal or less than 10 uM are considered active; assay type: functional; details: read-out: AC50
# Cytochrome P450 2C9 = Cytochrome P450 2C9 (Homo sapiens, UniProt P11712)
# Cytochrome P450 1A2 = biological target: T5, Cytochrome P450 1A2 (Homo sapiens, UniProt P05177);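 note: PubChem cytochrome P450 panel assay, CYP1A2 panel member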
# T5 sequence (P05177 whole entry): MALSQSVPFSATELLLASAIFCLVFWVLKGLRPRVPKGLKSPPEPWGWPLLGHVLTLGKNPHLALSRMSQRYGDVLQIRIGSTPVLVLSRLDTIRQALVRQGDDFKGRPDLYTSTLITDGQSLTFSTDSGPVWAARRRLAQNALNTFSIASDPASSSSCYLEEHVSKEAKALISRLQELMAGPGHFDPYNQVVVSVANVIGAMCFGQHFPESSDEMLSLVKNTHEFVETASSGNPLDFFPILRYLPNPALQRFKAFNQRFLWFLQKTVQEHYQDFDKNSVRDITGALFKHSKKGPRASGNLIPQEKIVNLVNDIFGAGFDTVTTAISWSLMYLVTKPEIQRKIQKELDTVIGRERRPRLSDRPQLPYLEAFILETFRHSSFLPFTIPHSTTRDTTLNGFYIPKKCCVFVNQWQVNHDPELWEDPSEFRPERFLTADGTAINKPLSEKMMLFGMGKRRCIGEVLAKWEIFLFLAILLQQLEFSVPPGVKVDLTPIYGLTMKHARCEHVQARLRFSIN
# Cytochrome P450 2D6 = Cytochrome P450 2D6 (Homo sapiens, UniProt P10635);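 note: CYP2D6 member of a cytochrome P450 panel assay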
# [8] = biological target: T6, Heat shock factor protein 1 (Mus musculus, UniProt P38532); experiment: decrease of HSF1-responsive luciferase luminescence – cell-based, NIH3T3, dose retest, confirmation (AID 2382); assay type: functional;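 note: NIH3T3 fibroblasts with HSF1-driven luciferase reporter stressed by proteasome inhibitor MG132; luminescence from HSF1-driven luciferase expression after 8 hours of MG132 stress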
# T6 sequence (P38532 whole entry): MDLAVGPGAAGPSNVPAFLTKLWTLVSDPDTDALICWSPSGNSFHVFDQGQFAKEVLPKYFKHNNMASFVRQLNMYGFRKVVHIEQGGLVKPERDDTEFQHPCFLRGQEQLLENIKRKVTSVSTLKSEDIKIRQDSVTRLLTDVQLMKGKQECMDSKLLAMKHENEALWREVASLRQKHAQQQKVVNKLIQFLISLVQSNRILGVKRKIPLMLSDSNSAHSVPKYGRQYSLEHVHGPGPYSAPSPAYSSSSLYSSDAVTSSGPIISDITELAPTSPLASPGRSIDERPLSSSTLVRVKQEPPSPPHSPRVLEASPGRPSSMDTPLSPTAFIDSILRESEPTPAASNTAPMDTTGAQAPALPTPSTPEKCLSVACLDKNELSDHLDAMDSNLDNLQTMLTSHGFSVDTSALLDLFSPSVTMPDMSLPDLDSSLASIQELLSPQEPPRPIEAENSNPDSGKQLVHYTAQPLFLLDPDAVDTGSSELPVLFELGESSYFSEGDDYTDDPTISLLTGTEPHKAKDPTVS
# Cytochrome P450 3A4 = Cytochrome P450 3A4 (Homo sapiens, UniProt P08684);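 note: CYP3A4 tested as one member of a cytochrome P450 panel screen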
# [9] = biological target: T7, Rac GTPase-activating protein 1 (Homo sapiens, UniProt Q9H0H5); experiment: blockers of MgcRacGAP-driven Rac1 GTP hydrolysis – biochemical, ADP Hunter fluorescence, primary and confirmatory, confirmation (AID 624330); assay type: functional
# T7 sequence (Q9H0H5 whole entry): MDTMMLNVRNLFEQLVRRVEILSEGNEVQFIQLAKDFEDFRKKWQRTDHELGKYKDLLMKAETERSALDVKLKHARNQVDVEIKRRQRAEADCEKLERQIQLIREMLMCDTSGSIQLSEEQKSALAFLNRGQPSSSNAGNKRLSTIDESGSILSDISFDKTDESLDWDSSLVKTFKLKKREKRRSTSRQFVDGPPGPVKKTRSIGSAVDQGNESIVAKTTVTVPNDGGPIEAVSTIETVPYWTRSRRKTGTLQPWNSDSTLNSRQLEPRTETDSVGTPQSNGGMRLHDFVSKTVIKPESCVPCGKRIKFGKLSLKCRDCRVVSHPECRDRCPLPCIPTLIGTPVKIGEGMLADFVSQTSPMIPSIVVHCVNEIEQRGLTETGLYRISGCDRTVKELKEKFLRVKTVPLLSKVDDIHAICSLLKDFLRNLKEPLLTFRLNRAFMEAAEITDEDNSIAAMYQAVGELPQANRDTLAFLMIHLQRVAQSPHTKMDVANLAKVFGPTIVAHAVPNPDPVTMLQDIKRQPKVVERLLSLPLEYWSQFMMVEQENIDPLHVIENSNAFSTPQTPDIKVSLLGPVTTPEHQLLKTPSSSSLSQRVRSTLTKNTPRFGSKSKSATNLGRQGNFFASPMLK
# [10] = Luminescence Cell-Based Dose Retest to Confirm Inhibitors of Cancer Stem Cells. [Related pubchem assays (depositor defined):AID2717, AID2721]; assay type: functional; details: Homo sapiens
# T4 sequence (P11940 whole entry, the tested form may be a part): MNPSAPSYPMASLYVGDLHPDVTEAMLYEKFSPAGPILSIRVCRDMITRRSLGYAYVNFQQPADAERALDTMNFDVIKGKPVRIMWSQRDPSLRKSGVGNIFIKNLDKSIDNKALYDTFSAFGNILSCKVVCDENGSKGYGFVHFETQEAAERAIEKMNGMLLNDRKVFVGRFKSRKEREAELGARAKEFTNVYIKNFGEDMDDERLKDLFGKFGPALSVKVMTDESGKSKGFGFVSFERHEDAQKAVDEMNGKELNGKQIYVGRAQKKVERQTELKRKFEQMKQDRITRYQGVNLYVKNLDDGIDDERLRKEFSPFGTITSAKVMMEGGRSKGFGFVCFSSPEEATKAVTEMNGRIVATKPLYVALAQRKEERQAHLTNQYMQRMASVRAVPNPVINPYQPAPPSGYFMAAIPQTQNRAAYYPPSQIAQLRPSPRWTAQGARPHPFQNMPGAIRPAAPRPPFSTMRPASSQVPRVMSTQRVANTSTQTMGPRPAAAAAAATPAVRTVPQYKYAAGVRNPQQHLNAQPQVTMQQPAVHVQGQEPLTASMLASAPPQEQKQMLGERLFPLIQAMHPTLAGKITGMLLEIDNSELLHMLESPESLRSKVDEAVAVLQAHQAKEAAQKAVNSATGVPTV
# Sequence of Cytochrome P450 2C19 (P33261 whole entry): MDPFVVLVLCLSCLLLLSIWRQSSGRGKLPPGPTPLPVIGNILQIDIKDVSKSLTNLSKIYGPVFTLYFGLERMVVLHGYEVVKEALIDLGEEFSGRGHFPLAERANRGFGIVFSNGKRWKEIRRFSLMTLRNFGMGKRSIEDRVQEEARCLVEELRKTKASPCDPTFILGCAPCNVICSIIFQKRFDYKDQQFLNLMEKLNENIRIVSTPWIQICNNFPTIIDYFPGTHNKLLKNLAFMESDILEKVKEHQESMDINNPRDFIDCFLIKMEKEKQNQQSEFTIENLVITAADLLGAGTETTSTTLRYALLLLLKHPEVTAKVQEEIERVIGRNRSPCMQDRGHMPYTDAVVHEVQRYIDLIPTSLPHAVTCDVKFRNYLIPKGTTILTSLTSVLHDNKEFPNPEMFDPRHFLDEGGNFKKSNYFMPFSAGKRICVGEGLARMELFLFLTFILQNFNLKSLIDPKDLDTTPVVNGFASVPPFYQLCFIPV
# Sequence of Cytochrome P450 2D6 (P10635 whole entry): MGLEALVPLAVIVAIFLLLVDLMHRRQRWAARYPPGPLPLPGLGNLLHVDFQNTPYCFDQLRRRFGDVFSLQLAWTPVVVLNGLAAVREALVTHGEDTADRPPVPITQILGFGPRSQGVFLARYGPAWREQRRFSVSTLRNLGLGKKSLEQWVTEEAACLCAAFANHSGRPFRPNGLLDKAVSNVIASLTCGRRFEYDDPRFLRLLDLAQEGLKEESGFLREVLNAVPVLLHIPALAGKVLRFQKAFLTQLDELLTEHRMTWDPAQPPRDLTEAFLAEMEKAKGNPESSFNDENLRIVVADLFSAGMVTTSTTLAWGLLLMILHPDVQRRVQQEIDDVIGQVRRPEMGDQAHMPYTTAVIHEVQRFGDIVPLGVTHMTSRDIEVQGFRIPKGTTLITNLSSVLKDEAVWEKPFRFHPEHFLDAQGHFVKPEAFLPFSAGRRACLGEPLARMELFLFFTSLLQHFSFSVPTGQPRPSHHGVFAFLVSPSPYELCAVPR
# Sequence of Cytochrome P450 2C9 (P11712 whole entry): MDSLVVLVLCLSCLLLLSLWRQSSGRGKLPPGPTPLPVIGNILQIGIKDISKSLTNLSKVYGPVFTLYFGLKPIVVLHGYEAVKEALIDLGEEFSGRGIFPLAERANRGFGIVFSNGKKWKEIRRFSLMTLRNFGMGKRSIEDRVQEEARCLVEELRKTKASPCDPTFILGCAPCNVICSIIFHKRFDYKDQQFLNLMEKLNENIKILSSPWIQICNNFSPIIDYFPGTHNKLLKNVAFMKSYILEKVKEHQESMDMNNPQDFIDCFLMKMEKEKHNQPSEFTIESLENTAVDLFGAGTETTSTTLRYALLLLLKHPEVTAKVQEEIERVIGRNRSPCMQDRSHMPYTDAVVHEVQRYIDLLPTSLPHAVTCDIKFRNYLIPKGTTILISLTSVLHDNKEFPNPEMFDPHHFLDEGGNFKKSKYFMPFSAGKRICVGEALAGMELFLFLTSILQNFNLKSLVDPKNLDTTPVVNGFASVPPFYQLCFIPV
# Sequence of Cytochrome P450 3A4 (P08684 whole entry): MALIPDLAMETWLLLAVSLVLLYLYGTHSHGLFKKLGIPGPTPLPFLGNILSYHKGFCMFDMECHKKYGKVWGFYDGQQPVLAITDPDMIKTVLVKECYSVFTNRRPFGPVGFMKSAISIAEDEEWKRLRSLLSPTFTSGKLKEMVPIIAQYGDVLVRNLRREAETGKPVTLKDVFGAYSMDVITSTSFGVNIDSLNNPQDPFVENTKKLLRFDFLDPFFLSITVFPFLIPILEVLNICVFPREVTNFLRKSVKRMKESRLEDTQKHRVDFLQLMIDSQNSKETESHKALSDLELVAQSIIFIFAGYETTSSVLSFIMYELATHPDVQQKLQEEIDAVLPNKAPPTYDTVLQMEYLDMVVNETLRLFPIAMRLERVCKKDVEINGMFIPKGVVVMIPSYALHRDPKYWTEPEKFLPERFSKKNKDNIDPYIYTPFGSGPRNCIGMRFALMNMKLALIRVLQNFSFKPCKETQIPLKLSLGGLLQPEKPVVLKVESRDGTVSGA
compound,measurement,setting,value
CCOC(=O)N1CCC2(CC1)C(C#N)=C(N)Oc1[nH]nc(CSc3ccc(C)cc3)c12,IC50,[1],3.34 µM (not active)
CCCNC(=O)c1ccc2c(O)c(O)c(-c3ccc(F)cc3)nc2c1,EC50,[2],> 150 µM (inactive)
same,EC50,[3],4.47 µM (inconclusive)
same,IC50,H9c2,14.1 µM (active)
same,EC50,[4],7.74 µM (inconclusive)
same,EC50,[5],> 38 µM (not active)
Cc1ccc(Cl)cc1N1C(=O)CC(Sc2ncccn2)C1=O (stereo unspecified),IC50,[6],> 66 µM (inactive)
same,IC50,[7],> 66 µM (inactive)
O=C(Nc1cccc(F)c1)N1CCCC2(CCN(C(=O)Oc3ccccc3)CC2)C1,AC50,Cytochrome P450 2C19,25.1 µM (inconclusive)
same,AC50,Cytochrome P450 2C9,39.8 µM (inconclusive)
same,AC50,Cytochrome P450 1A2,10 µM (inconclusive)
CC(C)c1ccc(N2C(=O)CC(Sc3ncccn3)C2=O)cc1 (stereo unspecified),IC50,[6],> 66 µM (inactive)
same,IC50,[7],> 66 µM (inactive)
FC(F)(F)c1ccccc1-c1cncnc1NCCN1CCOCC1,AC50,Cytochrome P450 2D6,15.8 µM (inconclusive)
same,AC50,Cytochrome P450 2C19,20 µM (inconclusive)
same,AC50,Cytochrome P450 1A2,2.51 µM (inconclusive)
Cc1ccc(-c2nc3cnccn3c2Nc2c(C)cccc2C)o1,IC50,[6],> 66 µM (inactive)
same,IC50,[7],> 66 µM (inactive)
same,EC50,[8],> 195 µM (not active)
CC(=O)NCc1c(Cl)cccc1-n1cccc1,AC50,Cytochrome P450 3A4,39.8 µM (inconclusive)
same,AC50,Cytochrome P450 2C19,11.2 µM (inconclusive)
same,AC50,Cytochrome P450 2C9,28.2 µM (inconclusive)
same,AC50,Cytochrome P450 1A2,15.8 µM (inconclusive)
CCc1ccccc1N(C(C)=O)c1nc(CN=C=S)cs1,IC50,[1],14.5 µM (not active)
O=C(NC(=S)Nc1ccc(S(=O)(=O)Nc2nccs2)cc1)c1ccccc1,IC50,[6],> 66 µM (inactive)
same,IC50,[7],> 66 µM (inactive)
CCCCN(C(=S)NC(=O)c1ccccc1)c1c(N)n(Cc2ccccc2)c(=O)[nH]c1=O,IC50,[6],> 66 µM (inactive)
same,IC50,[7],> 66 µM (inactive)
Cc1ccc(CNC(=O)Cn2cncn2)cc1,AC50,Cytochrome P450 2D6,17.8 µM (inconclusive)
same,AC50,Cytochrome P450 3A4,14.1 µM (inconclusive)
same,AC50,Cytochrome P450 1A2,39.8 µM (inconclusive)
NC(=O)CC(NC(=O)Cc1ccc(Br)cc1)c1ccc(NCC2CC2)c([N+](=O)[O-])c1 (stereo unspecified),IC50,[1],14.6 µM (not active)
Cc1onc(-c2ccccc2)c1C(=O)NC(=S)NNC(=O)c1ccncc1,IC50,[6],> 66 µM (inactive)
same,IC50,[7],> 66 µM (inactive)
O=C(c1ccc(Cl)cc1)c1oc2ccccc2c1CS(=O)(=O)c1ccccc1,IC50,[1],> 50 µM (not active)
O=C(O)c1ccc(Cl)c(NC(=S)NC(=O)c2ccccc2[N+](=O)[O-])c1,IC50,[6],> 66 µM (inactive)
same,IC50,[7],> 66 µM (inactive)
c1ccc2c(c1)-c1ccccc1C2N1C[C@H]2CC[C@H](CC2)C1,AC50,Cytochrome P450 1A2,0.501 µM (inconclusive)
C=C(C)CNC(=S)N/N=C/c1ccc(NC(C)=O)cc1,IC50,[1],13.5 µM (not active)
Cc1cc(O)cc(O)c1/C=N/NC(=O)c1ccc2c(c1)OCCO2,IC50,[6],30.8 µM (inactive)
same,IC50,[7],> 66 µM (inactive)
COc1ccc(N2C(=O)CC(SCCc3nc4ccccc4[nH]3)C2=O)cc1 (stereo unspecified),IC50,[6],> 66 µM (inactive)
same,IC50,[7],> 66 µM (inactive)
Oc1ccc(Br)cc1/C=N/c1ccc2[nH]ncc2c1,IC50,H9c2,12.6 µM (active)
same,IC50,[9],32.1 µM (active)
NS(=O)(=O)c1ccc(NC(S)=Nc2ccc(S(=O)(=O)N3CCCC3)cc2)cc1,IC50,[6],> 66 µM (inactive)
same,IC50,[7],> 66 µM (inactive)
N=C(N)SCc1cc(Cl)cc(Cl)c1O,AC50,Cytochrome P450 1A2,5.01 µM (inconclusive)
SC1=NC[C@H](Cc2ccccc2)N1CCCCC1CCCCC1,AC50,[10],6.26 µM (active)
same,IC50,[1],7.52 µM (not active)
c1ccc(CNc2nc(-c3cccnc3)nc3ccccc23)cc1,AC50,Cytochrome P450 2D6,15.8 µM (active)
same,AC50,Cytochrome P450 2C19,15.8 µM (active)
same,AC50,Cytochrome P450 1A2,0.398 µM (active)
Cc1ccc(-c2nc3ccccc3o2)cc1NC(=O)Cc1cccs1,AC50,Cytochrome P450 2C19,15.8 µM (inconclusive)
same,AC50,Cytochrome P450 1A2,2 µM (inconclusive)
NCCCCNS(=O)(=O)c1cccc2c(Cl)cccc12,AC50,Cytochrome P450 2D6,39.8 µM (inconclusive)
same,AC50,Cytochrome P450 3A4,25.1 µM (inconclusive)
same,AC50,Cytochrome P450 2C9,12.6 µM (inconclusive)
same,AC50,Cytochrome P450 1A2,15.8 µM (inconclusive)
COC(=O)C1CCN(CC(=O)Nc2sc3c(c2C#N)CCC3)CC1,AC50,Cytochrome P450 1A2,15.8 µM (inconclusive)
COc1cc(/C=N/NC(=O)COc2cccc(F)c2)ccc1OS(=O)(=O)c1ccc(C)cc1,IC50,[1],2.21 µM (not active)
